The numbers were not newly measured in patent publication US20170165286A1, “COMPOSITIONS AND METHODS FOR TREATING DIABETES AND LIVER DISEASES” (Cempra Pharmaceuticals, Inc., priority 2014, published 2017), which cites them from elsewhere.

The conditions of data set [1]: reported; cited from earlier work.
The conditions of data set [2]: reportedly; cited from earlier work.

Take `CC[C@H]1OC(=O)[C@H](C)[C@@H](O[C@H]2C[C@@](C)(OC)[C@@H](O)[C@H](C)O2)[C@H](C)[C@@H](O[C@@H]2O[C@H](C)C[C@H](N(C)C)[C@H]2O)[C@](C)(O)C[C@@H](C)CN(C)[C@H](C)[C@@H](O)[C@]1(C)O` [azithromycin]: in data set [1], the QT effect result is reported as “QT positive”.
As to `CC[C@H]1OC(=O)[C@H](C)C(=O)[C@H](C)[C@@H](O[C@@H]2O[C@H](C)C[C@H](N(C)C)[C@H]2O)[C@](C)(OC)C[C@@H](C)C(=O)[C@H](C)[C@H]2N(CCCCn3cnc(-c4cccnc4)c3)C(=O)O[C@]12C` [telithromycin], the QT effect entry in data set [1] is given as “QT positive”.
Turning to `CC[C@H]1OC(=O)[C@H](C)[C@@H](O[C@H]2C[C@@](C)(OC)[C@@H](O)[C@H](C)O2)[C@H](C)[C@@H](O[C@@H]2O[C@H](C)C[C@H](N(C)C)[C@H]2O)[C@](C)(OC)C[C@@H](C)C(=O)[C@H](C)[C@@H](O)[C@]1(C)O` [clarithromycin], the QT effect result in data set [1] is “QT positive”. For the same compound, the Liver toxicity result in data set [2] is “toxic to the liver”.
